According to patent US12539335B2, “Tricyclic polypeptide conjugated drug and use thereof” (CONJUSTAR (ZHUHAI) BIOLOGICS CO., LTD., priority 2021, dated 2026):
Where a name gives a salt, the structure may show the parent alone. Starred links: 1 amine or outer side, 2 acyl side, 3 side chain; linkers in the order of their positions; H or OH if unused. Positions of bridges follow the written chain, without caps; N, C: chain ends. Non-standard residues stand in square brackets, D forms with d. Residues, ends and D or L forms follow the SMILES beside them. Chains are numbered I, II in the order given. *: point of attachment. TATA = O=C(CC[*:1])N1CN(C(=O)CC[*:2])CN(C(=O)CC[*:3])C1; Dolaproine = CO[C@@H]([C@@H]1CCCN1)[C@@H](C)C(=O)O; Dil = CC[C@H](C)[C@H](NC)[C@@H](CC(=O)O)OC; 1Nal = N[C@@H](Cc1cccc2ccccc12)C(=O)O; X2 = O=C(CCCC(=O)[*:2])NCCC(=O)[*:1]; PABC = O=C(OCc1ccc(N[*:1])cc1)[*:2]; X1 = C[C@@H](N*)[C@@H](O)c1ccccc1; Hyp = O=C(O)[C@@H]1C[C@@H](O)CN1; hArg = N=C(N)NCCCC[C@H](N)C(=O)O; Cit = NC(=O)NCCC[C@H](N)C(=O)O; Pen = CC(C)(S)[C@H](N)C(=O)O; NMeV = CN[C@H](C(=O)O)C(C)C; Sar = CNCC(=O)O

What was measured:
[1] = system: NCI-H292 cells; experiment: In vitro anti-proliferative activity, CellTiter-Glo, NCI-H292; format: cell-based, Human; settings: NCI-H292, 72 h
Description: (§1) Test Example 2: In Vitro Anti-Proliferative Activity of the Compounds of the Present Invention on Nci-H292 and Mda-Mb-468 Cells
(§2) To investigate the effect of the compounds of the present invention on inhibiting cell proliferation by detecting the effect of the compounds on cell activity in vitro in tumor cell lines MDA-MB-468 and NCI-H292.
(§3) The tumor cell lines were cultured in a 37° C., no CO2 incubator and a 37° C., 5% CO2 incubator according to the culture conditions shown in Table 8, respectively. The cells were periodically passaged, and cells in a logarithmic growth phase were taken for plating.
(§4) Cells in a logarithmic growth phase were harvested and centrifuged at 1000 rpm for 3 min at room temperature. The supernatant was discarded, and the cells were resuspended in 5 mL of a culture medium. Then, 20 μL of the cell suspension was pipetted and mixed with trypan blue at 1:1 for staining for 3 min to detect cell viability and to count viable cells. The cell density was adjusted to 3000 cells/well. Then, 90 μL of the cell suspension was added to each culture plate well, and a cell-free culture medium was added to blank control wells. The culture plate was incubated overnight in a 37° C., no CO2, and 100% relative humidity incubator and a 37° C., 5% CO2, and 100% relative humidity incubator, respectively.
(§5) Preparation of a 400× compound stock plate: The compound to be tested was gradient diluted with DMSO from the highest to the lowest concentration.
(§6) Preparation of a 10× compound working solution: 78 μL of a cell culture medium was added to a V-bottomed 96-well plate, and 2 μL of the compound solution of each concentration was pipetted from the 400× compound stock plate into the cell culture medium in the 96-well plate. Then, 2 μL of DMSO was added to vehicle control and blank control. […]
(§7) The detection was performed according to the instructions of the Promega CellTiter-Glo Luminescent Cell Viability Assay kit (Promega-G7573). The luminescence signal was detected on the En Vision® Multi-mode Plate Reader (En Vision 2104-10). […]

[2] = system: MDA-MB-468 cells; experiment: In vitro anti-proliferative activity, CellTiter-Glo, MDA-MB-468; format: cell-based, Human; settings: MDA-MB-468, 72 h
Description: as §1, §2, §3, §4, §5, §6, §7

[3] = Metabolic stability in kidney S9, Cynomolgus macaques; format: in vitro ADME; settings: cynomolgus macaque
Description: Test Example 8: Metabolic Stability of the Compounds of the Present Invention in Kidney S9 from Mice, Rats, Cynomolgus Macaques, and Humans
To investigate the metabolic stability of the compounds of the present invention in kidney S9 from mice, rats, Cynomolgus macaques, and humans.
Materials: Kidney S9 from CD-1 mice, SD rats, Cynomolgus macaques, and humans were purchased from BioIVT or XenoTech LLC and stored in a −80° C. refrigerator.
Experimental procedure: Eight 96-well plates, designated T0, T5, T15, T30, T45, T60, Blank, and NCF60, were prepared. The first six incubation plates corresponded to reaction time points of 0, 5, 15, 30, 45, and 60 minutes, respectively. No test sample or control compound was added to the Blank plate.
The T0, T5, T15, T30, T45, and T60 plates were added with a 2 μL working solution of the test sample (10 mM of a solution of the compound to be tested in DMSO, diluted to 100 μM with 100% acetonitrile) and 100 μL of a S9 working solution (kidney S9 protein concentration of 1.0 mg/mL), and the Blank plate was only added with the S9 working solution. The above incubation plates were then placed in a 37° C. water bath for pre-incubation for about 10 minutes.
At the end of the pre-incubation, 98 μL of an auxiliary enzyme working solution was added to each sample well except the TO plate to start the reaction. […]

In the case of `CC[C@H](C)[C@@H]([C@@H](CC(=O)N1CCC[C@H]1[C@H](OC)[C@@H](C)C(=O)N[C@H](C)[C@@H](O)c1ccccc1)OC)N(C)C(=O)[C@@H](NC(=O)[C@H](C(C)C)N(C)C(=O)OCc1ccc(NC(=O)[C@H](CCCNC(N)=O)NC(=O)[C@@H](NC(=O)CCCC(=O)NCCC(=O)N(C)CC(=O)N(C)CC(=O)N(C)CC(=O)N(C)CC(=O)N(C)CC(=O)N(C)CC(=O)N(C)CC(=O)N(C)CC(=O)N(C)CC(=O)N(C)CC(=O)N[C@H]2CCCCNC(=O)C[C@@H](C(=O)N[C@H]3CSCCC(=O)N4CN5CN(C4)C(=O)CCSC(C)(C)[C@H](NC(=O)[C@@H](CC(=O)O)NC(=O)[C@H](Cc4cccc6ccccc46)NC(=O)[C@@H]4CCCN4C3=O)C(=O)N[C@@H](CCSC)C(=O)N[C@@H](CCCCNC(=N)N)C(=O)N[C@@H](CC(=O)O)C(=O)N[C@@H](Cc3c[nH]c4ccccc34)C(=O)N[C@@H](CO)C(=O)N[C@@H]([C@@H](C)O)C(=O)N3CCC[C@H]3C(=O)N3C[C@H](O)C[C@H]3C(=O)N[C@@H](Cc3c[nH]c4ccccc34)C(=O)N[C@H](C(N)=O)CSCCC5=O)NC(=O)CN(C)C2=O)C(C)C)cc1)C(C)C` [Acetate salt of PDC_2] (I: [Sar][Sar][Sar][Sar][Sar][Sar][Sar][Sar][Sar][Sar]K[Sar]DCP[1Nal][dD][Pen]M[hArg]DWSTP[Hyp]WC-NH2 / II: V[Cit][PABC][NMeV]V[Dil][Dolaproine]-X1; lactam I:11-I:13; linker I:14-I:18-I:28 via TATA; linker I:N-II:N via X2), the IC50 [1] is reported as 42.1 nM, the Maximum inhibition rate [1] is reported as 81.32% and the Minimum inhibition rate [1] is reported as 1.55%. For the same molecule, the IC50 [2] was 32.3 nM, the Maximum inhibition rate [2] was 86.28% and the Minimum inhibition rate [2] was −10.28%. The half-life at 1 μM [3] was over 2.42 h and the microsomal CLint at 1 μM [3] was under 9.6 µL/min/mg.
